Target: T1, full length AKT E17K (Homo sapiens, UniProt P31749, E17K)
T1 construct: host or cells: HEK-293 (ATCC CRL-1573)
Assay: NanoBRET Target Engagement (TE) Assay
Assay type: cell-based
Conditions: competitive displacement of tracer in cells, read-out: AKT1 E17K IC50
Method in brief: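 Compound and tracer incubated 2 h before luminescence at donor 450 nm and acceptor 600 nm, with extracellular signal inhibited. EC50 by sigmoidal variable-slope regression.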

T1 sequence (P31749 whole entry E17K): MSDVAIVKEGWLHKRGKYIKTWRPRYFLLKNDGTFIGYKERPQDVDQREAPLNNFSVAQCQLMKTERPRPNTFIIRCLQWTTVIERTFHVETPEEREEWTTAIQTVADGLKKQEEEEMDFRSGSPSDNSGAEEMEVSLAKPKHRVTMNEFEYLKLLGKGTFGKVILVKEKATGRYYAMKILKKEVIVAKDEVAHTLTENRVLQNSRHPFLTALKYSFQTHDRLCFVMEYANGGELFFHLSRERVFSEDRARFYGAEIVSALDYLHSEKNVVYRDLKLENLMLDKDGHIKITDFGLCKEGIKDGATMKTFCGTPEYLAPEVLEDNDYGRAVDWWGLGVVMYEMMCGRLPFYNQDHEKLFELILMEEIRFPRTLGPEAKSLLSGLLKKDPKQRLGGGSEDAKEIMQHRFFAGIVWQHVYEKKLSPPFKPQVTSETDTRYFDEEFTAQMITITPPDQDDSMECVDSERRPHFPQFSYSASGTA

Row | SMILES | IC50 [nM]
1 | CC(C)n1ncc(-c2ccc3nc(-c4nccnc4N)n(-c4ccc(CN5CCC(Nc6ccnc(C#N)n6)CC5)cc4)c3n2)n1 [Example 630, 4-((1-(4-(2-(3-Aminopyrazin-2-yl)-5-(2-isopropyl-2H-1,2,3-triazol-4-yl)-3H-imidazo[4,5-b]pyridin-3-yl)benzyl)piperidin-4-yl)amino)pyrimidine-2-carbonitrile] | < 15
2 | Cn1ccc(-c2ccc3nc(-c4cccnc4N)n(-c4ccc(CN5CCC(Nc6nccc(C#N)n6)CC5)cc4)c3n2)cc1=O [Example 360, 2-((1-(4-(2-(2-Aminopyridin-3-yl)-5-(1-methyl-2-oxo-1,2-dihydropyridin-4-yl)-3H-imidazo[4,5-b]pyridin-3-yl)benzyl)piperidin-4-yl)amino)pyrimidine-4-carbonitrile] | 60 to 600
3 | CC(=O)N(C)c1cccc(-c2ccc3nc(-c4cccnc4N)n(-c4ccc(CN5CCC(Nc6ccnc(C#N)n6)CC5)cc4)c3n2)c1 [Example 514, N-(3-(2-(2-Aminopyridin-3-yl)-3-(4-((4-((2-cyanopyrimidin-4-yl)amino)piperidin-1-yl)methyl)phenyl)-3H-imidazo[4,5-b]pyridin-5-yl)phenyl)-N-methylacetamide] | < 15
4 | CC(C)c1ccc(-c2ccc3nc(-c4cccnc4N)n(-c4ccc(CN5CCC(Nc6ccnc(C#N)n6)CC5)cc4)c3n2)cn1 [Example 643, 4-((1-(4-(2-(2-Aminopyridin-3-yl)-5-(6-isopropylpyridin-3-yl)-3H-imidazo[4,5-b]pyridin-3-yl)benzyl)piperidin-4-yl)amino)pyrimidine-2-carbonitrile] | < 15
5 | [2H]C1(Nc2ccnc(C#N)n2)CCN(Cc2ccc(-n3c(-c4cccnc4N)nc4ccc(-c5ccc(F)cc5)nc43)cc2)CC1 [Example 451, 4-((1-(4-(2-(2-Aminopyridin-3-yl)-5-(4-fluorophenyl)-3H-imidazo[4,5-b]pyridin-3-yl)benzyl)piperidin-4-yl-4-d)amino)pyrimidine-2-carbonitrile] | < 15
6 | N#Cc1nccc(NC2CCN(Cc3ccc(-n4c(-c5cccnc5N)nc5ccc(-c6cnccc6C#N)nc54)cc3)CC2)n1 [Example 384, 4-((1-(4-(2-(2-Aminopyridin-3-yl)-5-(4-cyanopyridin-3-yl)-3H-imidazo[4,5-b]pyridin-3-yl)benzyl)piperidin-4-yl)amino)pyrimidine-2-carbonitrile] | 15 to 60
7 | N#Cc1nccc(NC2CCN(Cc3ccc(-n4c(-c5cccnc5N)nc5cc(C#N)c(-c6ccc(F)cc6)nc54)cc3)CC2)n1 [Example 557, 2-(2-Aminopyridin-3-yl)-3-(4-((4-((2-cyanopyrimidin-4-yl)amino)piperidin-1-yl)methyl)phenyl)-5-(4-fluorophenyl)-3H-imidazo[4,5-b]pyridine-6-carbonitrile] | < 15
8 | N#Cc1nccc(NC2CCN(Cc3ccc(-n4c(-c5cccnc5N)nc5ccc(-c6ccc[nH]c6=O)nc54)cc3)CC2)n1 [Example 381, 4-((1-(4-(2-(2-Aminopyridin-3-yl)-5-(2-oxo-1,2-dihydropyridin-3-yl)-3H-imidazo[4,5-b]pyridin-3-yl)benzyl)piperidin-4-yl)amino)pyrimidine-2-carbonitrile] | < 15
9 | N#Cc1ccnc(N2CCN(Cc3ccc(-n4c(-c5cccnc5N)nc5ccc(-c6ccccc6Cl)nc54)cc3)CC2)n1 [Example 325, 2-(4-(4-(2-(2-Aminopyridin-3-yl)-5-(2-chlorophenyl)-3H-imidazo[4,5-b]pyridin-3-yl)benzyl)piperazin-1-yl)pyrimidine-4-carbonitrile] | 15 to 60
10 | N#Cc1nccc(NC2CCN(Cc3ccc(-n4c(-c5cncnc5)nc5ccc(-c6ccc(F)cn6)nc54)cc3)CC2)n1 [Example 601, 4-((1-(4-(5-(5-Fluoropyridin-2-yl)-2-(pyrimidin-5-yl)-3H-imidazo[4,5-b]pyridin-3-yl)benzyl)piperidin-4-yl)amino)pyrimidine-2-carbonitrile] | 600 to 10000
11 | N#Cc1nccc(N2CC3(CCN(Cc4ccc(-n5c(-c6cccnc6N)nc6ccc(-c7ccc(F)cc7)nc65)cc4)CC3)C2)n1 [Example 490, 4-(7-(4-(2-(2-Aminopyridin-3-yl)-5-(4-fluorophenyl)-3H-imidazo[4,5-b]pyridin-3-yl)benzyl)-2,7-diazaspiro[3.5]nonan-2-yl)pyrimidine-2-carbonitrile] | < 15
12 | N#Cc1ccc(-c2ccc3nc(-c4cccnc4N)n(-c4ccc(CN5CCC(Nc6ccnc(C#N)n6)CC5)cc4)c3n2)cc1 [Example 320, 4-((1-(4-(2-(2-Aminopyridin-3-yl)-5-(4-cyanophenyl)-3H-imidazo[4,5-b]pyridin-3-yl)benzyl)piperidin-4-yl)amino)pyrimidine-2-carbonitrile] | < 15
13 | N#Cc1nccc(NC2CCN(Cc3ccc(-n4c(-c5cncnc5N)nc5ccc(-c6ccc(F)cn6)nc54)cc3)CC2)n1 [Example 573, 4-((1-(4-(2-(4-Aminopyrimidin-5-yl)-5-(5-fluoropyridin-2-yl)-3H-imidazo[4,5-b]pyridin-3-yl)benzyl)piperidin-4-yl)amino)pyrimidine-2-carbonitrile] | 15 to 60
14 | N#Cc1nccc(NC2CCN(Cc3ccc(-n4c(-c5cccnc5N)nc5ccc(-c6cnoc6)nc54)cc3)CC2)n1 [Example 461, 4-((1-(4-(2-(2-Aminopyridin-3-yl)-5-(isoxazol-4-yl)-3H-imidazo[4,5-b]pyridin-3-yl)benzyl)piperidin-4-yl)amino)pyrimidine-2-carbonitrile] | < 15

Same assay, conditions: competitive tracer displacement in living cells, read-out: AKT1 E17K IC50

Row | SMILES | IC50 [nM]
15 | N#Cc1ccc(NC2CCN(Cc3ccc(-n4c(-c5cccnc5N)nc5cccnc54)cc3)CC2)cn1 [Example 157, 5-((1-(4-(2-(2-aminopyridin-3-yl)-3H-imidazo[4,5-b]pyridin-3-yl)benzyl)piperidin-4-yl)amino)picolinonitrile] | 600 to 10000
16 | C[C@@H]1CN(Cc2ccc(-n3c(-c4cccnc4N)nc4ccc(-c5ccccc5)nc43)cc2)C[C@@H](C)N1c1ccnc(C#N)n1 [Example 195, 4-((2R,6R)-4-(4-(2-(2-aminopyridin-3-yl)-5-phenyl-3H-imidazo[4,5-b]pyridin-3-yl)benzyl)-2,6-dimethylpiperazin-1-yl)pyrimidine-2-carbonitrile] | < 15
17 | N#Cc1nccc(NC2CCN(Cc3ccc(-n4c(-c5cccnc5N)nc5ccc(-c6ccc(=O)[nH]c6)nc54)cc3)CC2)n1 [Example 266, 4-((1-(4-(2-(2-Aminopyridin-3-yl)-5-(6-oxo-1,6-dihydropyridin-3-yl)-3H-imidazo[4,5-b]pyridin-3-yl)benzyl)piperidin-4-yl)amino)pyrimidine-2-carbonitrile] | 60 to 600
18 | N#Cc1nccc(N2CCN(Cc3ccc(-n4c(-c5cccnc5N)nc5cccnc54)cc3)CC2)n1 [Example 18, 4-(4-(4-(2-(2-Aminopyridin-3-yl)-3H-imidazo[4,5-b]pyridin-3-yl)benzyl)piperazin-1-yl)pyrimidine-2-carbonitrile] | 60 to 600
19 | Cn1cccc(-c2ccc3nc(-c4cccnc4N)n(-c4ccc(CN5CCC(Nc6ccnc(C#N)n6)CC5)cc4)c3n2)c1=O [Example 261, 4-((1-(4-(2-(2-Aminopyridin-3-yl)-5-(1-methyl-2-oxo-1,2-dihydropyridin-3-yl)-3H-imidazo[4,5-b]pyridin-3-yl)benzyl)piperidin-4-yl)amino)pyrimidine-2-carbonitrile] | < 15
20 | N#Cc1cnccc1C(=O)N1CCN(Cc2ccc(-n3c(-c4cccnc4N)nc4ccc(-c5ccccc5)nc43)cc2)CC1 [Example 144, 4-(4-(4-(2-(2-Aminopyridin-3-yl)-5-phenyl-3H-imidazo[4,5-b]pyridin-3-yl)benzyl)piperazine-1-carbonyl)nicotinonitrile] | 600 to 10000
21 | N#Cc1nccc(C(=O)N2CCN(Cc3ccc(-n4c(-c5cccnc5N)nc5cccnc54)cc3)CC2)n1 [Example 152, 4-(4-(4-(2-(2-aminopyridin-3-yl)-3H-imidazo[4,5-b]pyridin-3-yl)benzyl)piperazine-1-carbonyl)pyrimidine-2-carbonitrile] | 60 to 600
22 | N#Cc1cc(C(=O)NCc2ccc(-n3c(-c4cccnc4N)nc4cccnc43)cc2)ncn1 [Example 113, N-(4-(2-(2-Aminopyridin-3-yl)-3H-imidazo[4,5-b]pyridin-3-yl)benzyl)-6-cyanopyrimidine-4-carboxamide] | 600 to 10000
23 | N#Cc1ccnc(C(=O)NC2CCN(Cc3ccc(-n4c(-c5cccnc5N)nc5ccc(-c6ccccc6)nc54)cc3)CC2)c1 [Example 150, N-(1-(4-(2-(2-Aminopyridin-3-yl)-5-phenyl-3H-imidazo[4,5-b]pyridin-3-yl)benzyl)piperidin-4-yl)-4-cyanopicolinamide] | 60 to 600
24 | N#Cc1cc(N2CCCN(Cc3ccc(-n4c(-c5cccnc5N)nc5ccc(-c6ccccc6)nc54)cc3)CC2)ncn1 [Example 215, 6-(4-(4-(2-(2-aminopyridin-3-yl)-5-phenyl-3H-imidazo[4,5-b]pyridin-3-yl)benzyl)-1,4-diazepan-1-yl)pyrimidine-4-carbonitrile] | < 15
25 | N#Cc1ccncc1C(=O)NC1CCN(Cc2ccc(-n3c(-c4cccnc4N)nc4cccnc43)cc2)CC1 [Example 29, N-(1-(4-(2-(2-Aminopyridin-3-yl)-3H-imidazo[4,5-b]pyridin-3-yl)benzyl)piperidin-4-yl)-4-cyanonicotinamide] | 600 to 10000

Other lines, results leading:

Row | IC50 [nM] | SMILES
26 | < 15 | N#Cc1ncnc(N2CC[C@]3(CCN(Cc4ccc(-n5c(-c6cccnc6N)nc6ccc(-c7ccccc7)nc65)cc4)C3)C2)n1 [Example 269, (S)-4-(7-(4-(2-(2-Aminopyridin-3-yl)-5-phenyl-3H-imidazo[4,5-b]pyridin-3-yl)benzyl)-2,7-diazaspiro[4.4]nonan-2-yl)-1,3,5-triazine-2-carbonitrile]
27 | 15 to 60 | N#Cc1ccnc(N2CCN(Cc3ccc(-n4c(-c5cccnc5N)nc5ccc(-c6cccc(F)c6)nc54)cc3)CC2)n1 [Example 309, 2-(4-(4-(2-(2-Aminopyridin-3-yl)-5-(3-fluorophenyl)-3H-imidazo[4,5-b]pyridin-3-yl)benzyl)piperazin-1-yl)pyrimidine-4-carbonitrile]

Reference: US12209087B2, “AKT1 modulators” (Alterome Therapeutics, Inc., priority 2022, dated 2025)
